# Results published in patent US20170049717A1, “DRUG FOR TREATMENT OF TINNITUS PATIENTS” (KYORIN PHARMACEUTICAL CO., LTD., priority 2014, published 2017).
# Assays:
# 5-HT3 receptors = target: T1, 5-HT3 receptors (Homo sapiens, UniProt P46098); details: cited from earlier work
# T1 sequence (P46098 24-478): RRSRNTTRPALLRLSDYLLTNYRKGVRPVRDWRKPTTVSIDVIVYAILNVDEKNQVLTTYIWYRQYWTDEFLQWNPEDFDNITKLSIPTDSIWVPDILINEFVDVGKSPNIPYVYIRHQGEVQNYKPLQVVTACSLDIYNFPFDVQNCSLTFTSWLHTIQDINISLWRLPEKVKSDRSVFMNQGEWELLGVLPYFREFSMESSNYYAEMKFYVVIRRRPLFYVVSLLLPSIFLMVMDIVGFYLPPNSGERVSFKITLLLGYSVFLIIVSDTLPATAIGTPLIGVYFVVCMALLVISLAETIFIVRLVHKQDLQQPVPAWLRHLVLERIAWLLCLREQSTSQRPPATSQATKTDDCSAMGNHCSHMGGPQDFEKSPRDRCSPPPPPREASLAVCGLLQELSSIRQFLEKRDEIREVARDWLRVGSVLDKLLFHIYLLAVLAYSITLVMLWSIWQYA
# [1] = target: α9/α10 nicotinic acetylcholine receptors (Rattus norvegicus, UniProt P43144+Q9JLB5); details: Plazas, et al., Eur J Pharmacol., 2007; cited from earlier work
# Sequence of α9/α10 nicotinic acetylcholine receptors (P43144 26-479): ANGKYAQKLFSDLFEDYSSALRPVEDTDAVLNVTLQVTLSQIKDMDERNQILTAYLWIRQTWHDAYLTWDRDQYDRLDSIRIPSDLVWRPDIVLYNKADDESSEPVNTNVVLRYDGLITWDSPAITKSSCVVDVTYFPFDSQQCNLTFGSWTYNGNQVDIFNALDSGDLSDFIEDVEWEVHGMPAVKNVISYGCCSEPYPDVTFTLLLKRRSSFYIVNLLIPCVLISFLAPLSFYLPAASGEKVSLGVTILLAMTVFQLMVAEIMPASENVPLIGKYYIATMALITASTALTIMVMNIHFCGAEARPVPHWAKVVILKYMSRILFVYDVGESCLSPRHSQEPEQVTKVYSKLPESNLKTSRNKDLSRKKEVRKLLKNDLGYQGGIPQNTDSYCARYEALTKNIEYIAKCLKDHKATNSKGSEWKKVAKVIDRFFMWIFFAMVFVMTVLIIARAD
# Sequence of α9/α10 nicotinic acetylcholine receptors (Q9JLB5 25-447): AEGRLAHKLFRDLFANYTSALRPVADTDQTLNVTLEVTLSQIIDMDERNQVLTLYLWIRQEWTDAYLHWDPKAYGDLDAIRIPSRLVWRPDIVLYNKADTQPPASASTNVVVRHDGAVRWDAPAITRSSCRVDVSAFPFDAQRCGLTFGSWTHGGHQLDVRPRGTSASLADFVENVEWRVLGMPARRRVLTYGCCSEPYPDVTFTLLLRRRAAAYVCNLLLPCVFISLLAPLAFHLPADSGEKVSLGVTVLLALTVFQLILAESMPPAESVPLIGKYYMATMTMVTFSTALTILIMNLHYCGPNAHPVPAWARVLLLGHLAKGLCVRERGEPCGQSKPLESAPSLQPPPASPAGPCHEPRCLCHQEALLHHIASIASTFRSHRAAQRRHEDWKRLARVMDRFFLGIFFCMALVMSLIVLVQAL
# [2] = test system: patients with tinnitus associated with sudden hearing loss; experiment: 24-week, placebo controlled, randomized, double-blind comparative trial; TRSw score; format: in vivo, human; details: for Change in TRSw score, Neramexane: least mean squares (MMRM)
# Procedure: Film coated tablets comprising 12.5 mg neramexane mesylate were produced by the method disclosed in International Patent Publication No. WO2009/033649.
# The efficacy of neramexane mesylate on patients with tinnitus associated with sudden hearing loss was evaluated in a 24-week, placebo controlled, randomized, double-blind comparative trial.
# The film coated tablets comprising 12.5 mg neramexane mesylate or placebo tablets were administered for 24 weeks to patients having tinnitus. The dosage was started from 12.5 mg/day, and gradually increasing the dose to 50 mg/day over 4 weeks, and maintaining the same dose thereafter.
# The therapeutic effect of neramexane mesylate for the patients was evaluated using the TRSw score. Also, the state of anxiety or depression of the patients was evaluated using the HADS score. Statistical analysis was performed using a mixed-effect model repeated measure (MMRM) taking into consideration the covariance structure of error for the patient, with the change in TRSw score from before administration of neramexane mesylate tablets or placebo tablets (0 weeks) to each evaluation time point as the response variable, and with the drug-administered group, evaluation time point, interaction between drug-administered group and evaluation time point, 0-week TRSw score, gender and body weight as […]. The numerical values in the table represent least mean squares for the change in TRSw score at 16 weeks after administration and 24 weeks after administration. A change in score of less than 0 indicates a higher therapeutic effect.
# [3] = sudden hearing loss, together with HADS (anxiety) of >10
# [4] = sudden hearing loss, together with HADS (depression) of >10
# [5] = sudden hearing loss, together with morbidity period of 48 months or longer
# [6] = sudden hearing loss, together with suffering period of less than 6 months
smiles,measurement,setting,value
"CC1(C)CC(C)(C)CC(C)(N)C1 [Neramexane, 1-amino-1,3,3,5,5-pentamethylcyclohexane]",inhibiting activity on 5-HT3 receptors,5-HT3 receptors,exhibits inhibiting activity
same,inhibiting activity on α9/α10 nicotinic acetylcholine receptors,[1],exhibits inhibiting activity
same,"Change in TRSw score, Neramexane − placebo",[2]; Tinnitus associated with sudden hearing loss,−1.8
same,therapeutic effect,[2]; group with a depression value of greater than 10 according to HADS,unexpectedly excellent therapeutic effect
same,therapeutic effect,[2]; group with a morbidity period of 48 months or longer,unexpectedly excellent therapeutic effect
same,therapeutic effect,[2]; group with a suffering period of shorter than 6 months,unexpectedly excellent therapeutic effect
same,therapeutic effect,[2]; group with an anxiety value of greater than 10 according to HADS,unexpectedly excellent therapeutic effect
same,"Change in TRSw score, Neramexane","[2]; change from 0 weeks, up to 50 mg/day, Tinnitus associated with sudden hearing loss",−2.3
same,"Change in TRSw score, Neramexane",[2]; [3],−2.4
same,"Change in TRSw score, Neramexane",[2]; [4],−3.1
same,"Change in TRSw score, Neramexane",[2]; [5],−4.0
same,"Change in TRSw score, Neramexane",[2]; [6],−3.7
same,therapeutic effect compared to placebo,[2]; patients affected by tinnitus associated with sudden hearing loss,clear therapeutic effect
same,"Change in TRSw score, Neramexane − placebo",[2]; [3],−3.7
same,"Change in TRSw score, Neramexane − placebo",[2]; [4],−3.7
same,"Change in TRSw score, Neramexane − placebo",[2]; [5],−4.2
same,"Change in TRSw score, Neramexane − placebo",[2]; [6],−3.8
